A value given as a limit tells only on which side of the number the result lay.

This assay deals with DLD-1 BRCA2(−/−) Cell. The assay is described as follows: Cell viability assay (Resazurin) in DLD1-BRCA2 cells. It counts as cell-based. To be noted: Homo sapiens, DLD-1, 336 h, 14 days, 1,500 cells/well, final DMSO 1%. In short, it runs like this: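 DLD1-BRCA2 KG cells seeded at 1,500/well (parental 600/well) in RPMI-1640 with 10% FBS, compound added after 4 h (1% DMSO), media replaced every 3-4 days over 14 days at 37° C. Viability read by resazurin (0.1 mg/ml, 4 h) fluorescence at Ex/Em 560/590 nm; IC50 fitted.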
In general terms: Resazurin is reduced to fluorescent resorufin, in cell work by metabolically active cells.
What is called IC50 is the concentration that gives 50% inhibition. For `Cc1cc(C(F)(F)F)cc(N2[C@H](C(=O)N(CC#Cc3cnc(N4CCOCC4)cn3)c3ccc(F)c(C)c3)CCS2(=O)=O)n1` [Example 39, (S)-N-(4-fluoro-3-methylphenyl)-2-(6-methyl-4-(trifluoromethyl)pyridin-2-yl)-N-(3-(5-orpholinopyrazin-2-yl)prop-2-yn-1-yl)isothiazolidine-3-carboxamide 1,1-dioxide], the half-maximal inhibitory concentration (IC50) is less than 1000 nM. The figure for `Cc1cc(C(F)(F)F)cc(N2[C@H](C(=O)N(CC#Cc3cnc(NC(C)C)cn3)c3ccc(F)c(C)c3)CCS2(=O)=O)n1` [Example 36, (S)-N-(4-fluoro-3-methylphenyl)-N-(3-(5-(isopropylamino)pyrazin-2-yl)prop-2-yn-1-yl)-2-(6-methyl-4-(trifluoromethyl)pyridin-2-yl)isothiazolidine-3-carboxamide 1,1-dioxide] is less than 1000 nM; for `Cc1ccc(F)c(N(CC#Cc2cnc(NC(C)C)cn2)C(=O)[C@@H]2CCS(=O)(=O)N2c2cc(C(F)(F)F)cc(C)n2)c1` [Example 37, (S)-N-(2-fluoro-5-methylphenyl)-N-(3-(5-(isopropylamino)pyrazin-2-yl)prop-2-yn-1-yl)-2-(6-methyl-4-(trifluoromethyl)pyridin-2-yl)isothiazolidine-3-carboxamide 1,1-dioxide] it is 1100 to 5000 nM. The figure for `Cc1cc(C(F)(F)F)cc(N2[C@H](C(=O)N(CC#Cc3cnc(NC(N)=O)cn3)c3ccc(F)c(C)c3)CCS2(=O)=O)n1` [Example 35, (S)-N-(4-fluoro-3-methylphenyl)-2-(6-methyl-4-(trifluoromethyl)pyridin-2-yl)-N-(3-(5-ureidopyrazin-2-yl)prop-2-yn-1-yl)isothiazolidine-3-carboxamide 1,1-dioxide] is 1100 to 5000 nM. On to `Cc1cc(C(F)(F)F)cc(N2[C@H](C(=O)N(CC#Cc3cnc(N4C5CCC4COC5)cn3)c3ccc(F)c(C)c3)CCS2(=O)=O)n1` [Example 49, (3S)-N-(3-(5-(3-oxa-8-azabicyclo[3.2.1]octan-8-yl)pyrazin-2-yl)prop-2-yn-1-yl)-N-(4-fluoro-3-methylphenyl)-2-(6-methyl-4-(trifluoromethyl)pyridin-2-yl)isothiazolidine-3-carboxamide 1,1-dioxide], for which the IC50 was less than 1000 nM. Under `Cc1cc(C(F)(F)F)cc(N2C(=O)CC[C@H]2C(=O)N(CC#Cc2ccc(N)nn2)c2ccc(F)c(Cl)c2)n1` [Example 3, (S)-N-(3-(6-aminopyridazin-3-yl)prop-2-yn-1-yl)-N-(3-chloro-4-fluorophenyl)-1-(6-methyl-4-(trifluoromethyl)pyridin-2-yl)-5-oxopyrrolidine-2-carboxamide] stands less than 1000 nM; under `CCN1CCN(c2cnc(C#CCN(C(=O)[C@@H]3CCC(=O)N3c3cc(C(F)(F)F)cc(C)n3)c3ccc(F)c(C)c3)cn2)CC1` [Example 11, (S)-N-(3-(5-(4-ethylpiperazin-1-yl)pyrazin-2-yl)prop-2-yn-1-yl)-N-(4-fluoro-3-methylphenyl)-1-(6-methyl-4-(trifluoromethyl)pyridin-2-yl)-5-oxopyrrolidine-2-carboxamide], less than 1000 nM. In the case of `Cc1cc(C(F)(F)F)cc(N2[C@H](C(=O)N(CC#Cc3cnc(S(N)(=O)=O)cn3)c3ccc(F)c(C)c3)CCS2(=O)=O)n1` [Example 65, (S)-N-(4-fluoro-3-methylphenyl)-2-(6-methyl-4-(trifluoromethyl)pyridin-2-yl)-N-(3-(5-sulfamoylpyrazin-2-yl)prop-2-yn-1-yl)isothiazolidine-3-carboxamide 1,1-dioxide], the IC50 is less than 1000 nM. `Cc1cc(C(F)(F)F)cc(N2[C@H](C(=O)N(CC#Cc3cccc(N4CCOCC4)n3)c3ccc(F)c(C)c3)CCS2(=O)=O)n1` [Example 86, (S)-N-(4-fluoro-3-methylphenyl)-2-(6-methyl-4-(trifluoromethyl)pyridin-2-yl)-N-(3-(6-morpholinopyridin-2-yl)prop-2-yn-1-yl)isothiazolidine-3-carboxamide 1,1-dioxide] registered an IC50 of less than 1000 nM. For the compound `Cc1cc(C(F)(F)F)cc(N2[C@H](C(=O)N(CC#Cc3cnc(C(N)=O)c(C)n3)c3ccc(F)c(C)c3)CCS2(=O)=O)n1` [Example 62, (S)-N-(3-(5-carbamoyl-6-methylpyrazin-2-yl)prop-2-yn-1-yl)-N-(4-fluoro-3-methylphenyl)-2-(6-methyl-4-(trifluoromethyl)pyridin-2-yl)isothiazolidine-3-carboxamide 1,1-dioxide], the IC50 was less than 1000 nM. `Cc1cc(C(F)(F)F)cc(N2[C@H](C(=O)N(CC#Cc3ccc(OC(F)F)nn3)c3ccc(F)c(C)c3)CCS2(=O)=O)n1` [Example 28, (S)-N-(3-(6-(difluoromethoxy)pyridazin-3-yl)prop-2-yn-1-yl)-N-(4-fluoro-3-methylphenyl)-2-(6-methyl-4-(trifluoromethyl)pyridin-2-yl)isothiazolidine-3-carboxamide 1,1-dioxide] displayed an IC50 of less than 1000 nM.

`Cc1cc(C(F)(F)F)cc(N2[C@H](C(=O)N(CC#Cc3cncc(C(=O)N4CC5CCC(C4)O5)n3)c3ccc(F)c(C)c3)CCS2(=O)=O)n1` [Example 71, (3S)-N-(3-(6-(8-oxa-3-azabicyclo[3.2.1]octane-3-carbonyl)pyrazin-2-yl)prop-2-yn-1-yl)-N-(4-fluoro-3-methylphenyl)-2-(6-methyl-4-(trifluoromethyl)pyridin-2-yl)isothiazolidine-3-carboxamide 1,1-dioxide] returned an IC50 of less than 1000 nM. With `Cc1cc(C(F)(F)F)cc(N2[C@H](C(=O)N(CC#Cc3ccc(C(=O)N(C)C)nc3)c3ccc(F)c(C)c3)CCS2(=O)=O)n1` [Example 111, (S)-N-(3-(6-(dimethylcarbamoyl)pyridin-3-yl)prop-2-yn-1-yl)-N-(4-fluoro-3-methylphenyl)-2-(6-methyl-4-(trifluoromethyl)pyridin-2-yl)isothiazolidine-3-carboxamide 1,1-dioxide], the IC50 was less than 1000 nM. With `Cc1cc(C(F)(F)F)cc(N2C(=O)CC[C@H]2C(=O)N(CC#Cc2cncn2C)c2ccc(F)c(C)c2)n1` [Example 9, (S)-N-(4-fluoro-3-methylphenyl)-N-(3-(1-methyl-1H-imidazol-5-yl)prop-2-yn-1-yl)-1-(6-methyl-4-(trifluoromethyl)pyridin-2-yl)-5-oxopyrrolidine-2-carboxamide], the half-maximal inhibitory concentration (IC50) is less than 1000 nM. As for `Cc1cc(C(F)(F)F)cc(N2[C@H](C(=O)N(CC#Cc3cnc(N4CCOCC4)c(N)n3)c3ccc(F)c(C)c3)CCS2(=O)=O)n1` [Example 44, (S)-N-(3-(6-amino-5-morpholinopyrazin-2-yl)prop-2-yn-1-yl)-N-(4-fluoro-3-methylphenyl)-2-(6-methyl-4-(trifluoromethyl)pyridin-2-yl)isothiazolidine-3-carboxamide 1,1-dioxide], the half-inhibitory concentration (IC50) was 1100 to 5000 nM.

These data come from US20260297083A1, “SUBSTITUTED ACETYLENE COMPOUND DERIVATIVES AND THEIR PHARMACEUTICAL USE” (AVELOS THERAPEUTICS INC., priority 2023, published 2026).
